Assay results: ChEMBL document CHEMBL5465560, “Selectivity Literature for EUbOPEN Chemogenomic Library” (2024)

Columns and labels:
[1] = biological target: Vascular endothelial growth factor receptor 2 (Homo sapiens, UniProt P35968); experiment: Selectivity interaction (Ambit KINOMEscan and KiNATiv profiling in Jurkat cells) EUB0000090b KDR; type: cell-based; settings: at 1 µM
[2] = biological target: Serine/threonine-protein kinase 35 (Homo sapiens) (UniProt Q8TDR2); experiment: Selectivity interaction (KinomeScan (DiscoverX)) EUB0001079a STK35; settings: at 1 µM
[3] = biological target: Tyrosine-protein kinase ABL1 (Homo sapiens, UniProt P00519); experiment: Selectivity interaction (KinomeScan (DiscoverX)) EUB0000618a ABL1; settings: at 10 µM
[4] = biological target: T1, Dual specificity tyrosine-phosphorylation-regulated kinase 2 (Homo sapiens) (UniProt Q92630); experiment: Selectivity interaction (KinomeScan (DiscoverX)) EUB0000607a DYRK2; settings: at 10 µM
T1 sequence (whole entry): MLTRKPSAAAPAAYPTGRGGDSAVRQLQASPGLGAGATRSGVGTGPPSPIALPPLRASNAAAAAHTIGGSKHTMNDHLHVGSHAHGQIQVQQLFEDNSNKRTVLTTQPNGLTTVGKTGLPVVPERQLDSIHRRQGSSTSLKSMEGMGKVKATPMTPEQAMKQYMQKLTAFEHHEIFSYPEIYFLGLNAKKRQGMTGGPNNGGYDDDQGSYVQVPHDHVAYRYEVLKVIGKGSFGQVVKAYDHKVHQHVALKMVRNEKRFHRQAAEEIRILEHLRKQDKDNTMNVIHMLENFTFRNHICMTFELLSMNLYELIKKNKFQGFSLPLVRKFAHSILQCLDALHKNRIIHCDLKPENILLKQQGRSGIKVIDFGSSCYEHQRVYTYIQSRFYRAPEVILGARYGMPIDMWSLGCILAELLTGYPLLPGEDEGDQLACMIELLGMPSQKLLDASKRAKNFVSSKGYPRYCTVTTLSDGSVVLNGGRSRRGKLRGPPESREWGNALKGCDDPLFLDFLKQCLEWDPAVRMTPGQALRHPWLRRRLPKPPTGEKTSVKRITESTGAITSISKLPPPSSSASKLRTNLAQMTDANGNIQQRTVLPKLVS

[5] = biological target: Mitogen-activated protein kinase 4 (Homo sapiens) (UniProt P31152); experiment: Selectivity interaction (KinomeScan (DiscoverX)) EUB0000595a MAPK4; settings: at 10 µM
[6] = biological target: Tyrosine-protein kinase ABL2 (Homo sapiens, UniProt P42684); experiment: Selectivity interaction (ActivX KiNativ screen (kinase selectivity in THP-1 cell lysates)) EUB0000639a ABL2; type: subcellular; settings: lysate
[7] = biological target: T1, Dual specificity tyrosine-phosphorylation-regulated kinase 2 (Homo sapiens); experiment: Selectivity interaction (ProQinase) EUB0000171b DYRK2
[8] = biological target: Citron Rho-interacting kinase (Homo sapiens) (UniProt O14578); experiment: Selectivity interaction (KinomeScan (DiscoverX)) EUB0001049a CIT; settings: at 1 µM
[9] = biological target: T2, Myosin-IIIb (Homo sapiens) (UniProt Q8WXR4); experiment: Selectivity interaction (KinomeScan (DiscoverX)) EUB0001049a MYO3B; settings: at 1 µM
T2 sequence (whole entry): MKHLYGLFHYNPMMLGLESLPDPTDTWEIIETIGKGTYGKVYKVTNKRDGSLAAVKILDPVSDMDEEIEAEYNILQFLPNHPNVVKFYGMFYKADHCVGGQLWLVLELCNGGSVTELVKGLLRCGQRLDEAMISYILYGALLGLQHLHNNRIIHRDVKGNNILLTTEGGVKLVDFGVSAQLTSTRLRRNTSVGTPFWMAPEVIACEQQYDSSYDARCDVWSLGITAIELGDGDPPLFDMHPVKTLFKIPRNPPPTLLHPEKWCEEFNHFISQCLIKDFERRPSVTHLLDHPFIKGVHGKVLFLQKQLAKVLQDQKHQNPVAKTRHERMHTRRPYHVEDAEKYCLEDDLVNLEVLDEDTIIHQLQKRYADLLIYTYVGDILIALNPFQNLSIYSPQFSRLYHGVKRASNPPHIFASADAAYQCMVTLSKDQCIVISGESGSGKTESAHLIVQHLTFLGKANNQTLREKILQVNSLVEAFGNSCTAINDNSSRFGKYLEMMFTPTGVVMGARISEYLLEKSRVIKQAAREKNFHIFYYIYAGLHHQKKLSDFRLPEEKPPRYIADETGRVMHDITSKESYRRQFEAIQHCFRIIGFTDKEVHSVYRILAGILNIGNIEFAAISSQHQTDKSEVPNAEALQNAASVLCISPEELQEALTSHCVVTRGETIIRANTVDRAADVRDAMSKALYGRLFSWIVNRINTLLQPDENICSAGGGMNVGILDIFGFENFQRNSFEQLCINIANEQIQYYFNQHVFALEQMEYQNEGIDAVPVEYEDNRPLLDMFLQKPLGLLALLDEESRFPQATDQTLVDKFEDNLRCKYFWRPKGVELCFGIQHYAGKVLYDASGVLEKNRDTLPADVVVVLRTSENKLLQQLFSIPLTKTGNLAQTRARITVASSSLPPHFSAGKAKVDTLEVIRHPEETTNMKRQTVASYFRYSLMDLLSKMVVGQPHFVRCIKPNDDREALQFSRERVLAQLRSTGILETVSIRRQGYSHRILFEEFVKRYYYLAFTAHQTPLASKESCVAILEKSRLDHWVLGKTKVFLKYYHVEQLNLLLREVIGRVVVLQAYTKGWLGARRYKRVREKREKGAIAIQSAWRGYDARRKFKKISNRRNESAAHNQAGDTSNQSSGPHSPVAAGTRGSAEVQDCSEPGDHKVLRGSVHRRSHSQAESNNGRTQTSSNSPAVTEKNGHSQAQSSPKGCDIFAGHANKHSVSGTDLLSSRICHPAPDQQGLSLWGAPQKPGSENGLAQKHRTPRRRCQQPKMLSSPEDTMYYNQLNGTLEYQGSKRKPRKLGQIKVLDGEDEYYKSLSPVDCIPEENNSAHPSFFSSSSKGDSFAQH

[10] = biological target: MAP/microtubule affinity-regulating kinase 3 (Homo sapiens) (UniProt P27448); experiment: Selectivity interaction (KinomeScan (DiscoverX)) EUB0000666a MARK3; settings: at 10 µM
[11] = biological target: Receptor-interacting serine/threonine-protein kinase 2 (Homo sapiens, UniProt O43353); experiment: Selectivity interaction (KinomeScan (DiscoverX)) EUB0000666a RIPK2; settings: at 10 µM
Receptor-interacting serine/threonine-protein kinase 2, sequence (O43353 whole entry): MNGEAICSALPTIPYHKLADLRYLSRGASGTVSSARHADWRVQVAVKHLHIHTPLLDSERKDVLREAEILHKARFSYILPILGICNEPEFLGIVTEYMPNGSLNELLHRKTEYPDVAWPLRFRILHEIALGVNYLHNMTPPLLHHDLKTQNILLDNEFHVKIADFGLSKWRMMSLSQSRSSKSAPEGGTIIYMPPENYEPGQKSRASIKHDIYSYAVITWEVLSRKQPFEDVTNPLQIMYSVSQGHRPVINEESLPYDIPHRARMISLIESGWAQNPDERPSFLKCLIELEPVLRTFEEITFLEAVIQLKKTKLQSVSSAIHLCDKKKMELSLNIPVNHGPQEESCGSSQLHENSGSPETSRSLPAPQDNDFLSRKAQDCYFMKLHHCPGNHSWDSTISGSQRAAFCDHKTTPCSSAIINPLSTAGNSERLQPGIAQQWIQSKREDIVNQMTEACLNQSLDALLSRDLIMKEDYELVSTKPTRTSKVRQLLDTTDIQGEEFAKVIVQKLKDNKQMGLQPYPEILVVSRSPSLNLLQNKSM

Tyrosine-protein kinase ABL2, sequence (P42684 whole entry): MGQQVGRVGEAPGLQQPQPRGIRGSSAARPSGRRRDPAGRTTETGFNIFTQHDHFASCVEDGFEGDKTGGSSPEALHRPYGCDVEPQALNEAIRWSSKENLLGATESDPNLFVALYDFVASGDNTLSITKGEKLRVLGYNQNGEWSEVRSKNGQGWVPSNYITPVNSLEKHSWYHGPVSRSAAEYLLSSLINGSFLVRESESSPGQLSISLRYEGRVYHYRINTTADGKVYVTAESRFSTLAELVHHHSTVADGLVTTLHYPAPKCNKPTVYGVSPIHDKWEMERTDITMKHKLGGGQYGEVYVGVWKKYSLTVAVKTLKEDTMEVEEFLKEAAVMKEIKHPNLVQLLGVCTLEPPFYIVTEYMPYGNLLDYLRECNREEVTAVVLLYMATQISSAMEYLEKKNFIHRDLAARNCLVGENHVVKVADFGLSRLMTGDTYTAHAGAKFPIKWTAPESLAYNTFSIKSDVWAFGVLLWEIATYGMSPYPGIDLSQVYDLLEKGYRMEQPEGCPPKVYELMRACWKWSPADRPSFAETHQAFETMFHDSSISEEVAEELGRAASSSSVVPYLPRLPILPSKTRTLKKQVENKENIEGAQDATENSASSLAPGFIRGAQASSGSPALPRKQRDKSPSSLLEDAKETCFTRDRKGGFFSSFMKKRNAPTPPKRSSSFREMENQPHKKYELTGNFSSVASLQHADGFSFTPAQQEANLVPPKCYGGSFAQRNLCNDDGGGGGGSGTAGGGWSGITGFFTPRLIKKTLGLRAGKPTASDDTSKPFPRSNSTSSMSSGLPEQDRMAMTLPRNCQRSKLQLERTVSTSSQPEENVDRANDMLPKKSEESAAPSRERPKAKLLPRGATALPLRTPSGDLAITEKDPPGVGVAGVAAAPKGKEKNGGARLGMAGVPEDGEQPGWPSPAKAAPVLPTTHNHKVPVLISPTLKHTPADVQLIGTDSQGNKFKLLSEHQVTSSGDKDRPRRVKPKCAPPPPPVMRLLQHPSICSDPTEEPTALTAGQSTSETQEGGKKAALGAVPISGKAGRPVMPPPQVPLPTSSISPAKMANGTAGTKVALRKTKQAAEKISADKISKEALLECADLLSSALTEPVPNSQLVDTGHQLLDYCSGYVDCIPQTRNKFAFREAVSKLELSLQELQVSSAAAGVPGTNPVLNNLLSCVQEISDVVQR
Tyrosine-protein kinase ABL1, sequence (P00519 whole entry): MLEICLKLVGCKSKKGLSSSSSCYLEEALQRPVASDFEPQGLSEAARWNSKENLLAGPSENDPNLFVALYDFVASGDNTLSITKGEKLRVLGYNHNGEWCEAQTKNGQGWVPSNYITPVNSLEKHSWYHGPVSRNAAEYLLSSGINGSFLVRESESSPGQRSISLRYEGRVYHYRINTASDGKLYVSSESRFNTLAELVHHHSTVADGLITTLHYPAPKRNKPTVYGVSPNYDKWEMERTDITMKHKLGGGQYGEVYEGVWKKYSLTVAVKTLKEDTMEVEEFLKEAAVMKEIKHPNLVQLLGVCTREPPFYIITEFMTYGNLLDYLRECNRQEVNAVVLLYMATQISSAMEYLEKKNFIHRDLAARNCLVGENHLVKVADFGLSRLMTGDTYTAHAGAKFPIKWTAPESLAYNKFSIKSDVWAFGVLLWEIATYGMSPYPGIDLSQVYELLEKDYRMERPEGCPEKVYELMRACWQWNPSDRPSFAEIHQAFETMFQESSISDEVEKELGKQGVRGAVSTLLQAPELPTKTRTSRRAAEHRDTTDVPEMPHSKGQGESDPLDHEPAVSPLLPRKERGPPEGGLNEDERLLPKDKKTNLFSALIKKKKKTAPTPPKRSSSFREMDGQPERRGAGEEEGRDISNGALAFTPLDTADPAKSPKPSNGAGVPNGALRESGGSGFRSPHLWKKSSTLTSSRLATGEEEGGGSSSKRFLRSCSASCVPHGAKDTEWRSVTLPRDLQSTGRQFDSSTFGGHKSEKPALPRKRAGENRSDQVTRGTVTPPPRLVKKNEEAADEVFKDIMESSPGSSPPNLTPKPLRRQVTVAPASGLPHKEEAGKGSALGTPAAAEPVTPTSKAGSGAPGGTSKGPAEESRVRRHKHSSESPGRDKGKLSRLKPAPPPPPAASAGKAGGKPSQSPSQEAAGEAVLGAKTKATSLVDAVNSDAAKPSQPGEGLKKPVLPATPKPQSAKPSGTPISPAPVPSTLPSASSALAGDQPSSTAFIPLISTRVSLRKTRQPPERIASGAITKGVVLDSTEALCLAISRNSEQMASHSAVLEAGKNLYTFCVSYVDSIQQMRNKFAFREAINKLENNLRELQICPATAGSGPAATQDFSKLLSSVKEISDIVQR
Vascular endothelial growth factor receptor 2, sequence (P35968 whole entry): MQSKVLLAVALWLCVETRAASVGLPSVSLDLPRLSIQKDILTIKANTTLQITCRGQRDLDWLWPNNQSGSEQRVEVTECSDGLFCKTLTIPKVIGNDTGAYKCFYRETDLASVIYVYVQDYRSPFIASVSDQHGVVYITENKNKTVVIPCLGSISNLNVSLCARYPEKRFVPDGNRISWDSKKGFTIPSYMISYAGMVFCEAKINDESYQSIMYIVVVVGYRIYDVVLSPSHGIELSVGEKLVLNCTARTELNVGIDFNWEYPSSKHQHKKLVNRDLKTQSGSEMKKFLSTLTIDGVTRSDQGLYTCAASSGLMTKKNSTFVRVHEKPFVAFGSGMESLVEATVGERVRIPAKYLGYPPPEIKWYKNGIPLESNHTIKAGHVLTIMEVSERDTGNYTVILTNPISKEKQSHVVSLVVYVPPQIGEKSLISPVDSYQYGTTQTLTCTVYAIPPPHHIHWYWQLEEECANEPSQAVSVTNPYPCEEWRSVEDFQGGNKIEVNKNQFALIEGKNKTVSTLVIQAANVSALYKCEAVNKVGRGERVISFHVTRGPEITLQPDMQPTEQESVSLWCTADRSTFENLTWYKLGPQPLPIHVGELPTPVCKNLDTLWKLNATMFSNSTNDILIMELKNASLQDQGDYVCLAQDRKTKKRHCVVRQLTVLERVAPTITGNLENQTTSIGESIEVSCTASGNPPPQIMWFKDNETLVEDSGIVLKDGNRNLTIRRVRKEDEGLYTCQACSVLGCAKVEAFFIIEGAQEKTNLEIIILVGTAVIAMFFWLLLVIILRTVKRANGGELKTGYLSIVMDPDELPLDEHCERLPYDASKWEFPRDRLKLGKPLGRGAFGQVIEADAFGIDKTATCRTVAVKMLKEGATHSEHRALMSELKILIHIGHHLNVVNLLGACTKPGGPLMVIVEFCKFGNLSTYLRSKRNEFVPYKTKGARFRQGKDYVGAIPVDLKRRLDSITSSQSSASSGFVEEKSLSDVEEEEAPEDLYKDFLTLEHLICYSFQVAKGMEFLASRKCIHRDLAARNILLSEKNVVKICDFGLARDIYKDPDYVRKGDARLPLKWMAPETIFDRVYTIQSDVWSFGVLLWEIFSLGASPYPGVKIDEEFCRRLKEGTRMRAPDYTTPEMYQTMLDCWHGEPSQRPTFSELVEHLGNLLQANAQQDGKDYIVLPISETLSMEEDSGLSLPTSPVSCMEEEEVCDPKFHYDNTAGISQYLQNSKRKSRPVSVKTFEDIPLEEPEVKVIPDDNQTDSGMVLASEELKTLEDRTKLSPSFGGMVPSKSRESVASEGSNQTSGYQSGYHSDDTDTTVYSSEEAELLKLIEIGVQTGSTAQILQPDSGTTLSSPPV
Serine/threonine-protein kinase 35 (Homo sapiens), sequence (Q8TDR2 whole entry): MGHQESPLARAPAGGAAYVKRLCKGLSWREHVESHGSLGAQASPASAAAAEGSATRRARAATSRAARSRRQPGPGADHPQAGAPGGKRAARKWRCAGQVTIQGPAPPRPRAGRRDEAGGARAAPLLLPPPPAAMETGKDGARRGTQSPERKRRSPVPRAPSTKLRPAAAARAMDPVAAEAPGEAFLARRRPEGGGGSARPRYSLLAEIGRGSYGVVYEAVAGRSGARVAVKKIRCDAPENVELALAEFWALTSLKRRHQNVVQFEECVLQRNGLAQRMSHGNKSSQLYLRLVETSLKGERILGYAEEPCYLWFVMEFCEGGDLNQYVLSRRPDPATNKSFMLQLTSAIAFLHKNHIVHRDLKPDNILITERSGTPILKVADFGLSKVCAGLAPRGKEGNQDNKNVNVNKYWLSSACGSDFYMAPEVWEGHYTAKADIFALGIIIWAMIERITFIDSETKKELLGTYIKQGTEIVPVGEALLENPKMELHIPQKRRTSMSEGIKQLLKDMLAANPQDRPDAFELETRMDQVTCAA

CN(C)C/C=C/C(=O)Nc1ccc(C(=O)N2CCCC(Nc3ncc(Cl)c(-c4c[nH]c5ccccc45)n3)C2)cc1 (stereo unspecified)
% of control [1]: 86%

Nc1cnc(N2CCc3cc(S(=O)(=O)Nc4c(F)cc(Cl)cc4F)cc(N4CCCC4=O)c32)nc1 [TP-020n]
% of control [2]: 100%

O[C@H]1CC[C@H](Nc2ncc3nc(Nc4c(F)cc(F)cc4F)n([C@H]4CCOC4)c3n2)CC1
% of control [3]: 34%

CNC(=O)Nc1ccc(-c2nc(N3CC4CCC(C3)O4)c3cnn(C4CCC5(CC4)OCCO5)c3n2)cc1
% of control [4]: 90%

COCC(=O)NC/C=C/c1ccc2ncnc(Nc3ccc(Oc4ccc(C)nc4)c(C)c3)c2c1 [CP-724714]
% of control [5]: 100%

CC[C@@H]1[C@H](F)C(=O)N[C@@H]1COc1nccc2cc(C(N)=O)c(OC)cc12 [ZIMLOVISERTIB]
% of inhibition ([6]; at 0.01 µM): 52%
% of inhibition ([6]; at 0.04 µM): -16%
% of inhibition ([6]; at 0.2 µM): -25.4%
% of inhibition ([6]; at 1 µM): -5.3%
% of inhibition ([6]; at 5 µM): -19.6%

C=CC(=O)Nc1cccc(C(=O)Nc2ccc(Nc3cc(-c4[nH]c(SC)nc4C)ccn3)cc2)c1
% of control ([7]; at 1 µM): 72%
% of control ([7]; at 5 µM): 30%

COc1cc(Nc2nc(C)cc(-c3cnn4nc(OC)ccc34)n2)cc(C(F)(F)F)c1
% of control [8]: 100%
% of control [9]: 100%

O=C(NOC[C@H](O)CO)c1ccc(F)c(F)c1Nc1ccc(I)cc1F
% of control [10]: 91%
% of control [11]: 66%
